# ChEMBL document CHEMBL4715697, “Synthesis and biological activity of benzamide DNA minor groove binders” (2016)
# Tests used:
# Format in all cases: functional
# MOLT-4 = assay: Growth inhibition of human MOLT-4 cells assessed as cell growth at 0.01 uM incubated for 48 hrs by sulforhodamine B assay relative to control; details: read-out: Activity
# A549 [1] = assay: Growth inhibition of human A549/ATCC cells assessed as cell growth at 0.01 uM incubated for 48 hrs by sulforhodamine B assay relative to control; details: read-out: Activity
# HOP-62 [2] = assay: Growth inhibition of human HOP-62 cells assessed as cell growth at 0.01 uM incubated for 48 hrs by sulforhodamine B assay relative to control; details: read-out: Activity
# LOX IMVI [3] = assay: Growth inhibition of human LOX IMVI cells assessed as cell growth at 0.01 uM incubated for 48 hrs by sulforhodamine B assay relative to control; details: read-out: Activity
# Malme-3M = assay: Growth inhibition of human Malme-3M cells assessed as cell growth at 0.01 uM incubated for 48 hrs by sulforhodamine B assay relative to control; details: read-out: Activity
# SK-MEL-2 = assay: Growth inhibition of human SK-MEL-2 cells assessed as cell growth at 0.01 uM incubated for 48 hrs by sulforhodamine B assay relative to control; details: read-out: Activity
# SK-MEL-5 [4] = assay: Growth inhibition of human SK-MEL-5 cells assessed as cell growth at 0.01 uM incubated for 48 hrs by sulforhodamine B assay relative to control; details: read-out: Activity
# SK-OV-3 = assay: Growth inhibition of human SK-OV-3 cells assessed as cell growth at 0.01 uM incubated for 48 hrs by sulforhodamine B assay relative to control; details: read-out: Activity
# HL-60(TB) = assay: Growth inhibition of human HL-60(TB) cells assessed as cell growth at 0.1 uM incubated for 48 hrs by sulforhodamine B assay relative to control; details: read-out: Activity
# A549 [5] = assay: Growth inhibition of human A549/ATCC cells assessed as cell growth at 0.1 uM incubated for 48 hrs by sulforhodamine B assay relative to control; details: read-out: Activity
# HOP-62 [6] = assay: Growth inhibition of human HOP-62 cells assessed as cell growth at 0.1 uM incubated for 48 hrs by sulforhodamine B assay relative to control; details: read-out: Activity
# KM12 = assay: Growth inhibition of human KM12 cells assessed as cell growth at 0.1 uM incubated for 48 hrs by sulforhodamine B assay relative to control; details: read-out: Activity
# SK-MEL-5 [7] = assay: Growth inhibition of human SK-MEL-5 cells assessed as cell growth at 0.1 uM incubated for 48 hrs by sulforhodamine B assay relative to control; details: read-out: Activity
# OVCAR-3 [8] = assay: Growth inhibition of human OVCAR-3 cells assessed as cell growth at 0.1 uM incubated for 48 hrs by sulforhodamine B assay relative to control; details: read-out: Activity
# RXF 393 = assay: Growth inhibition of human RXF 393 cells assessed as cell growth at 0.1 uM incubated for 48 hrs by sulforhodamine B assay relative to control; details: read-out: Activity
# TK-10 = assay: Growth inhibition of human TK-10 cells assessed as cell growth at 0.1 uM incubated for 48 hrs by sulforhodamine B assay relative to control; details: read-out: Activity
# DU-145 [9] = assay: Growth inhibition of human DU-145 cells assessed as cell growth at 0.1 uM incubated for 48 hrs by sulforhodamine B assay relative to control; details: read-out: Activity
# RPMI-8226 = assay: Growth inhibition of human RPMI-8226 cells assessed as cell growth at 1 uM incubated for 48 hrs by sulforhodamine B assay relative to control; details: read-out: Activity
# HOP-62 [10] = assay: Growth inhibition of human HOP-62 cells assessed as cell growth at 1 uM incubated for 48 hrs by sulforhodamine B assay relative to control; details: read-out: Activity
# HCT-116 = assay: Growth inhibition of human HCT-116 cells assessed as cell growth at 1 uM incubated for 48 hrs by sulforhodamine B assay relative to control; details: read-out: Activity
# LOX IMVI [11] = assay: Growth inhibition of human LOX IMVI cells assessed as cell growth at 1 uM incubated for 48 hrs by sulforhodamine B assay relative to control; details: read-out: Activity
# SK-MEL-5 [12] = assay: Growth inhibition of human SK-MEL-5 cells assessed as cell growth at 1 uM incubated for 48 hrs by sulforhodamine B assay relative to control; details: read-out: Activity
# NCI/ADR-RES [13] = assay: Growth inhibition of human NCI/ADR-RES cells assessed as cell growth at 1 uM incubated for 48 hrs by sulforhodamine B assay relative to control; details: read-out: Activity
# A498 [14] = assay: Growth inhibition of human A498 cells assessed as cell growth at 1 uM incubated for 48 hrs by sulforhodamine B assay relative to control; details: read-out: Activity
# Hs-578T = assay: Growth inhibition of human Hs-578T cells assessed as cell growth at 1 uM incubated for 48 hrs by sulforhodamine B assay relative to control; details: read-out: Activity
# NCI-H226 [15] = assay: Growth inhibition of human NCI-H226 cells assessed as cell growth at 100 uM incubated for 48 hrs by sulforhodamine B assay relative to control; details: read-out: Activity
# HT-29 = assay: Growth inhibition of human HT-29 cells assessed as cell growth at 100 uM incubated for 48 hrs by sulforhodamine B assay relative to control; details: read-out: Activity
# SF-539 = assay: Growth inhibition of human SF-539 cells assessed as cell growth at 100 uM incubated for 48 hrs by sulforhodamine B assay relative to control; details: read-out: Activity
# MDA-MB-435 = assay: Growth inhibition of human MDA-MB-435 cells assessed as cell growth at 100 uM incubated for 48 hrs by sulforhodamine B assay relative to control; details: read-out: Activity
# NCI/ADR-RES [16] = assay: Growth inhibition of human NCI/ADR-RES cells assessed as cell growth at 100 uM incubated for 48 hrs by sulforhodamine B assay relative to control; details: read-out: Activity
# A498 [17] = assay: Growth inhibition of human A498 cells assessed as cell growth at 100 uM incubated for 48 hrs by sulforhodamine B assay relative to control; details: read-out: Activity
# DU-145 [18] = assay: Growth inhibition of human DU-145 cells assessed as cell growth at 100 uM incubated for 48 hrs by sulforhodamine B assay relative to control; details: read-out: Activity
# MDA-MB-231 = assay: Growth inhibition of human MDA-MB-231 cells assessed as cell growth at 100 uM incubated for 48 hrs by sulforhodamine B assay relative to control; details: read-out: Activity
# BT-549 = assay: Growth inhibition of human BT-549 cells assessed as cell growth at 100 uM incubated for 48 hrs by sulforhodamine B assay relative to control; details: read-out: Activity
# NCI-H226 [19] = assay: Growth inhibition of human NCI-H226 cells incubated for 48 hrs by sulforhodamine B assay
# OVCAR-3 [20] = assay: Growth inhibition of human OVCAR-3 cells incubated for 48 hrs by sulforhodamine B assay
# OVCAR-4 = assay: Growth inhibition of human OVCAR-4 cells incubated for 48 hrs by sulforhodamine B assay
# [21] = read-out: LC50 (the source's name)
# [22] = read-out: pLC50 (the source's name) (converted)
structure (smiles),measurement,setting,value
CC(=O)Nc1cc(CCl)cc(NC(=O)c2ccc(C(=O)Nc3cccc(NC(=O)CCCN(C)C)c3)cc2)c1,growth at 0.01 µM,MOLT-4,102%
same,growth at 0.01 µM,A549 [1],104%
same,growth at 0.01 µM,HOP-62 [2],101%
same,growth at 0.01 µM,LOX IMVI [3],96%
same,growth at 0.01 µM,Malme-3M,99%
same,growth at 0.01 µM,SK-MEL-2,107%
same,growth at 0.01 µM,SK-MEL-5 [4],96%
same,growth at 0.01 µM,SK-OV-3,106%
same,growth at 0.1 µM,HL-60(TB),93%
same,growth at 0.1 µM,A549 [5],99%
same,growth at 0.1 µM,HOP-62 [6],104%
same,growth at 0.1 µM,KM12,108%
same,growth at 0.1 µM,SK-MEL-5 [7],92%
same,growth at 0.1 µM,OVCAR-3 [8],108%
same,growth at 0.1 µM,RXF 393,94%
same,growth at 0.1 µM,TK-10,106%
same,growth at 0.1 µM,DU-145 [9],106%
same,growth at 1 µM,RPMI-8226,116%
same,growth at 1 µM,HOP-62 [10],102%
same,growth at 1 µM,HCT-116,107%
same,growth at 1 µM,LOX IMVI [11],86%
same,growth at 1 µM,SK-MEL-5 [12],93%
same,growth at 1 µM,NCI/ADR-RES [13],95%
same,growth at 1 µM,A498 [14],73%
same,growth at 1 µM,Hs-578T,109%
same,growth at 100 µM,NCI-H226 [15],87%
same,growth at 100 µM,HT-29,51%
same,growth at 100 µM,SF-539,112%
same,growth at 100 µM,MDA-MB-435,94%
same,growth at 100 µM,NCI/ADR-RES [16],85%
same,growth at 100 µM,A498 [17],62%
same,growth at 100 µM,DU-145 [18],94%
same,growth at 100 µM,MDA-MB-231,74%
same,growth at 100 µM,BT-549,94%
same,GI50,NCI-H226 [19]; read-out: GI50,> 100 µM
same,CC50,NCI-H226 [19]; [21],> 100 µM
same,TGI,NCI-H226 [19]; read-out: TGI,> 100 µM
same,GI50,NCI-H226 [19]; read-out: pGI50 (converted),> 100 µM
same,CC50,NCI-H226 [19]; [22],> 100 µM
same,TGI,NCI-H226 [19]; read-out: pTGI,> 100 µM
same,GI50,OVCAR-3 [20]; read-out: GI50,> 100 µM
same,LC50 (50% lethal concentration),OVCAR-3 [20]; read-out: LC50,> 100 µM
same,TGI,OVCAR-3 [20]; read-out: TGI,> 100 µM
same,GI50,OVCAR-3 [20]; read-out: pGI50 (converted),> 100 µM
same,LC50 (50% lethal concentration),OVCAR-3 [20]; read-out: pLC50 (converted),> 100 µM
same,TGI,OVCAR-3 [20]; read-out: pTGI,> 100 µM
same,GI50,OVCAR-4; read-out: GI50,> 100 µM
same,LC50 (concentration killing 50% of cells),OVCAR-4; read-out: LC50,> 100 µM
same,TGI,OVCAR-4; read-out: TGI,> 100 µM
same,GI50,OVCAR-4; read-out: pGI50 (converted),> 100 µM
same,LC50 (concentration killing 50% of cells),OVCAR-4; read-out: pLC50 (converted),> 100 µM
same,TGI,OVCAR-4; read-out: pTGI,> 100 µM
CC(=O)Nc1cc(CO[Si](C)(C)C(C)(C)C)cc(NC(=O)c2ccc(C(=O)Nc3cccc(NC(=O)CCCN(C)C)c3)cc2)c1,growth at 0.01 µM,MOLT-4,87%
same,growth at 0.01 µM,A549 [1],99%
same,growth at 0.01 µM,HOP-62 [2],97%
same,growth at 0.01 µM,LOX IMVI [3],101%
same,growth at 0.01 µM,Malme-3M,99%
same,growth at 0.01 µM,SK-MEL-2,100%
same,growth at 0.01 µM,SK-MEL-5 [4],98%
same,growth at 0.01 µM,SK-OV-3,98%
same,growth at 0.1 µM,HL-60(TB),97%
same,growth at 0.1 µM,A549 [5],99%
same,growth at 0.1 µM,HOP-62 [6],98%
same,growth at 0.1 µM,KM12,100%
same,growth at 0.1 µM,SK-MEL-5 [7],97%
same,growth at 0.1 µM,OVCAR-3 [8],109%
same,growth at 0.1 µM,RXF 393,102%
same,growth at 0.1 µM,TK-10,99%
same,growth at 0.1 µM,DU-145 [9],100%
same,growth at 1 µM,RPMI-8226,110%
same,growth at 1 µM,HOP-62 [10],97%
same,growth at 1 µM,HCT-116,101%
same,growth at 1 µM,LOX IMVI [11],94%
same,growth at 1 µM,SK-MEL-5 [12],98%
same,growth at 1 µM,NCI/ADR-RES [13],97%
same,growth at 1 µM,A498 [14],48%
same,growth at 1 µM,Hs-578T,117%
same,growth at 100 µM,NCI-H226 [15],87%
same,growth at 100 µM,HT-29,100%
same,growth at 100 µM,SF-539,88%
same,growth at 100 µM,MDA-MB-435,88%
same,growth at 100 µM,NCI/ADR-RES [16],92%
same,growth at 100 µM,A498 [17],51%
same,growth at 100 µM,DU-145 [18],85%
same,growth at 100 µM,MDA-MB-231,96%
same,growth at 100 µM,BT-549,86%
same,GI50,NCI-H226 [19]; read-out: GI50,> 75 µM
same,CC50,NCI-H226 [19]; [21],> 75 µM
same,TGI,NCI-H226 [19]; read-out: TGI,> 75 µM
same,GI50,NCI-H226 [19]; read-out: pGI50 (converted),> 75.9 µM
same,CC50,NCI-H226 [19]; [22],> 75.9 µM
same,TGI,NCI-H226 [19]; read-out: pTGI,> 75.9 µM
same,GI50,OVCAR-3 [20]; read-out: GI50,> 75 µM
same,LC50 (50% lethal concentration),OVCAR-3 [20]; read-out: LC50,> 75 µM
same,TGI,OVCAR-3 [20]; read-out: TGI,> 75 µM
same,GI50,OVCAR-3 [20]; read-out: pGI50 (converted),> 75.9 µM
same,LC50 (50% lethal concentration),OVCAR-3 [20]; read-out: pLC50 (converted),> 75.9 µM
same,TGI,OVCAR-3 [20]; read-out: pTGI,> 75.9 µM
same,GI50,OVCAR-4; read-out: GI50,> 75 µM
same,LC50 (concentration killing 50% of cells),OVCAR-4; read-out: LC50,> 75 µM
same,TGI,OVCAR-4; read-out: TGI,> 75 µM
same,GI50,OVCAR-4; read-out: pGI50 (converted),> 75.9 µM
same,LC50 (concentration killing 50% of cells),OVCAR-4; read-out: pLC50 (converted),> 75.9 µM
same,TGI,OVCAR-4; read-out: pTGI,> 75.9 µM
